According to article PMC9917213, “New Insights into Bitopic Orthosteric/Allosteric Ligands of Cannabinoid Receptor Type 2” (International Journal of Molecular Sciences, 2023):
Read-outs that look alike come from different tables or passages of the source.

Assays:
[1] = molecular target: T1, hCB2R (Homo sapiens, UniProt P34972); experiment: HitHunter cAMP assay: inhibition of forskolin-stimulated cAMP; format: cell-based; details: for Emax: read-out: Emax ± SEM
T1 construct: host or cells: CHO-K1 (HitHunter cAMP cell line)
Method: Chinese hamster ovary (CHO)-K1 cells untransfected or stably-expressing human cannabinoid CB2R (hCB2R) were used as previously reported. Cells were maintained at 37 °C, 5% CO2 in F-12/DMEM containing 1 mM L-glutamine, 10% fetal bovine serum (FBS), and 1% Pen/Strep and hygromycin B (300 μg/mL) and G418 (400 μg/mL). HitHunter® (cAMP) CHO-K1 cells stably expressing hCB2R from DiscoveRx (Eurofins, Fremont, CA, USA) were maintained at 37 °C, 5% CO2 in F-12 DMEM containing 10% FBS and 1% Pen/Strep with 800 μg/mL geneticin.
This method was conducted as described previously. The quantification of FSK-stimulated cAMP accumulation was performed using the DiscoveRx HitHunter assay. Twenty thousand cells/well were plated in low-volume 96-well plates and incubated overnight in Opti-MEM containing 1% FBS at 37 °C and 5% CO2. Opti-MEM media was then removed and replaced with cell assay buffer (DiscoveRx), and cells were co-treated at 37 °C with 10 μM FSK and ligands for 90 min. The cAMP antibody solution and cAMP working detection solutions were added to cells (DiscoveRx), and cells were incubated for 60 min at room temperature. cAMP solution A (DiscoveRx) was added, and cells were incubated for an additional 180 min at room temperature before chemiluminescence was measured on a Cytation5 plate reader (top read, gain 200, integration time 10,000 ms).
Post-hoc analyses were performed using Tukey’s (one-way ANOVA) test.

[2] = Plasma stability (LC-HRMS), rat plasma; format: in vitro ADME; details: 20 µM, 37 °C, up to 360 min
Method: (§1) Plasma stability was evaluated at the time points 0, 10, 30, 60, 120, 240, and 360 min over two species, rodent (rat) and human, and assessed by LC-HRMS. Results are expressed as a relative percentage (mean ± SD) with respect to the amount at t = 0 min. JR22a is stable both in rat and human plasma up to the last time point tested (360 min), as can be observed in Figure 6.
(§2) Stock solutions of 1 mg/mL JR22a and procainamide (used as internal standard, IS) were prepared in CH3OH and kept in ice during sample preparation and stored at −20 °C if not in use. The stability was tested in rat and human plasma obtained from Sigma-Aldrich (Milan, Italy).
(§3) JR22a (20 µM) was incubated with plasma at 37 °C under gentle shaking up to […] in triplicates. An aliquot of 20 µL was withdrawn from the mixture and diluted to a final volume of 200 µL of a 2 % TCA solution containing procainamide 1 µM at each time point: 10, 30, 60, 120, 240, and 360 min. Samples were kept in ice for 20 min and then centrifugated at 14,000 rpm for 10 min at 4 °C. The supernatant was diluted 1:1 with water and transferred in vials for the analysis. […]

[3] = test system: HMC3 cells; experiment: MTT cell viability assay; format: cell-based, human; details: 24 h
Method: Cell viability was evaluated by 3-(4,5-dimethylthiazol-2-yl)-2,5-diphenyltetrazolium bromide (MTT) reagent. Briefly, HMC3 cells were exposed to increasing concentrations of the compound, ranging from 0.1 to 25 µM. After 24 h, 0.5 mg/mL MTT reagent was added to each well, and the cells were incubated for 3 h at 37 °C. Then, 25 µL of the medium was removed from the wells, and 50 µL of DMSO was added. After 10 min incubation at 37 °C, absorbance at OD540 nm was determined with an automated microplate reader (BIO-TEK, Winooski, VT, USA). The percentage of cell viability was calculated as a percentage of vehicle-treated cells used as control.

[4] = molecular target: T2, hCB1R (Homo sapiens, UniProt P21554); experiment: [3H]CP55,940 radioligand displacement assay, hCB1R; format: binding; details: CHO hCB1R membranes, 1 nM [3H]CP55,940, 0.10 nM-10 μM compound, 2 h
T2 construct: expressed in transfected cells; host or cells: CHO-K1 cell membranes
Method: (§4) We assessed ligand affinity for JR-22a at hCB1R and hCB2R using a […]
(§5) either receptor. […] At hCB2R, JR-22a
(§6) Figure S1. […] Membranes from CHO-K1 cells stably-expressing hCB1R (a) or […]
(§7) Data were fitted to a non-linear regression (three-parameter model, GraphPad v. 9.0). Data are mean ± S.E.M. of 3 independent experiments performed in triplicate.
(§8) Radioligand Displacement Assay.
(§9) Cells were scraped from flasks, centrifuged, and frozen at −80 °C until required.
(§10) This method was conducted as described previously. Cells were thawed, diluted in Tris buffer (50 mM Tris−HCl and 50 mM Tris−base), and homogenized in a 1 mL handheld homogenizer. hCB1R and hCB2R CHO−K1 cell membranes were collected by cavitation in a pressure cell and sedimented by ultracentrifugation. Pellets were resuspended in TME buffer (50 mM Tris−HCl, 5 mM MgCl2, 1 mM EDTA, pH 7.4), and protein concentration was measured via the Bradford method (Bio-Rad Laboratories, Mississauga, ON). Competition binding experiments were conducted with 1 nM [3H]CP55, 940 and Tris binding buffer (50 mM Tris−HCl, 50 mM Tris−base, 0.1% BSA, pH 7.4, 2 mL). Radioligand binding began with the addition of CHO−K1 cell membranes (50 μg protein per sample). […] Liquid scintillation spectrometry was used to quantify radioactivity. For competition binding experiments, specific binding was equal to the difference in radioactivity with or without 1 μM […]

[5] = Plasma stability (LC-HRMS), human plasma; format: in vitro ADME; details: 20 µM, 37 °C, up to 360 min
Method: as §1, §2, §3

[6] = test system: HMC3 cells; experiment: IL-6 release (ELISA) in LPS/TNFα stimulated HMC3 cells; format: cell-based, human
Method: The human microglial clone 3 cell line (HMC3) (ATCC® CRL-3304™) was cultured in high glucose DMEM supplemented with 10% FBS, streptomycin ([…]) and penicillin (100 U/mL) (Sigma-Aldrich, Milan, Italy). LPS (Cat. number L4391) and TNFα (Cat. number H8916) were purchased from Sigma-Aldrich (Milan, Italy).
The pro-inflammatory IL-6 levels were evaluated by a specific ELISA assay (RAB0306, Sigma-Aldrich, Milan, Italy) on collected culture media. Briefly, HMC3 cells were exposed to pretreatment with a test compound for 30 min followed by LPS (10 μg/mL)/TNFα (50 ng/mL) for 24 h, used as pro-inflammatory stimuli. Vehicle-treated cells were used as control. In competition experiments, the CB2R antagonist (SR144528, 1 μM; Cayman Chemical Company, Ann Arbor, MA, USA) or the CB2R positive allosteric modulator (EC21a, 10 μM) was administered 15 min before agonist administration.

[7] = molecular target: T1, hCB2R; experiment: [3H]CP55,940 radioligand displacement assay, hCB2R; format: binding
Method: as §4, §5, §6, §7, §8, §9, §10

[8] = pEC50 ± SEM, compound alone, CHO hCB2R, 10 μM FSK, 90 min

T1 sequence (P34972 whole entry): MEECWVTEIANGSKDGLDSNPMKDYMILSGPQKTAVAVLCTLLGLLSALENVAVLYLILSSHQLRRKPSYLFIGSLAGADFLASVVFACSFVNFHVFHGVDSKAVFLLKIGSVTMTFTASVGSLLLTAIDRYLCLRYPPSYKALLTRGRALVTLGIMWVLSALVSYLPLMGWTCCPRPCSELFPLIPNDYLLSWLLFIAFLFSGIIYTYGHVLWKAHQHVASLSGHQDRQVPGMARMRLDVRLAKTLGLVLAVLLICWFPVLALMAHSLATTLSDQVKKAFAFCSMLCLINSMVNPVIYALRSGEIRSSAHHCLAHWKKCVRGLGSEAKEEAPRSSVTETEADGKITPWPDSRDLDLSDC
T2 sequence (P21554 whole entry): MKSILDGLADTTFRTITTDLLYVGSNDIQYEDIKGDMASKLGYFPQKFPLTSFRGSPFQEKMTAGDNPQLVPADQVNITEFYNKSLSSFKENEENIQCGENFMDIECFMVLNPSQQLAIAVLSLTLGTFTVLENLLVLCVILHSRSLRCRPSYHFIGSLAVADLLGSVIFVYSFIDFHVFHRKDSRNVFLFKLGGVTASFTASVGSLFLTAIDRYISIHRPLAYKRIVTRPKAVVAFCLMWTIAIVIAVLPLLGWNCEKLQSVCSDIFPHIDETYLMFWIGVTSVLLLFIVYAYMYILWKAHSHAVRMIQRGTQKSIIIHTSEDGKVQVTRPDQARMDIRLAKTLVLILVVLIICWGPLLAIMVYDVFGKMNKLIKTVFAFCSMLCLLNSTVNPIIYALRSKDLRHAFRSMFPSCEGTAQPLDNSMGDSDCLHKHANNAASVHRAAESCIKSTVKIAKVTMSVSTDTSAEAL

Q: Which EC50 [1, 8] does the source give for Cc1c(Br)cn(CCCCCCCn2c(=O)c(C(=O)NC3CCC(C)CC3)cc3cccnc32)c(=O)c1NC(=O)C1CCCCCC1 (stereo not drawn) [JR64a] here?
A: 2.51 nM

Q: What about the Emax [1] of the same molecule?
A: 19 ± 6%

Q: Which EC50 [1] does the source give for Cc1c(Br)cn(Cc2ccc(F)cc2)c(=O)c1NC(=O)C1CCCCCC1 [EC21a, reference compound] here?
A: 30 nM

Q: What about the “Activity alone in cAMP inhibition” value ([1]; EC21a alone, Emax not different from 0) of the same molecule?
A: inactive

Q: And the Emax [1]?
A: -14 ± 7%

Q: With Cc1c(Br)cn(CCCc2cn(CCCCCn3c(=O)c(C(=O)NC4CCC(C)CC4)cc4cccnc43)nn2)c(=O)c1NC(=O)C1CCCCCC1 (stereo not drawn) [JR22a] as the molecule, how does the Plasma stability [2] read?
A: stable

Q: What about the “Cell viability (MTT)” value ([3]; 25 μM) of the same molecule?
A: significant inhibition of cell viability

Q: And the “Cytotoxic effect (cell viability, MTT)” value ([3]; 1 and 10 μM)?
A: no cytotoxic effect

Q: What about the “Displacement of [3H]CP55,940” value [4] of the same molecule?
A: not able to displace

Q: And the Plasma stability [5]?
A: stable

Q: And the EC50 ([1]; EC50 (in brackets after pEC50), compound alone, CHO hCB2R, 10 μM FSK, 90 min)?
A: 698 nM

Q: And the EC50 [1, 8]?
A: 794 nM

Q: And the Emax [1]?
A: 53 ± 6%

Q: And the “IL-6 levels in the cultured medium” value ([6]; 1 and 10 μM, 30 min pre-treatment, then LPS (10 μg/mL)/TNFα (50 ng/mL) 24 h)?
A: significant dose-dependent decrease

Q: And the “Effect of EC21a co-treatment on ability of JR22a to prevent IL-6 release” value ([6]; EC21a 10 μM, equimolar with JR22a, LPS/TNFα 24 h)?
A: did not interfere

Q: And the “Effect of SR144528 pre-administration on the JR22a effect on IL-6 release” value ([6]; SR144528 1 μM, 15 min before JR22a, LPS/TNFα 24 h)?
A: almost completely abolished

Q: And the IC50 [7]?
A: 95 nM

Q: And the Ki [7]?
A: 95 nM

Q: Which “pEC50 ± SEM” value ([1]; compound alone, CHO hCB2R, 10 μM FSK, 90 min) does the source give for Cc1c(Br)cn(CCCc2cn(CCCCC(=O)NC3CCC(NC(=O)c4cc5cccnc5n(Cc5ccc(F)cc5)c4=O)CC3)nn2)c(=O)c1NC(=O)C1CCCCCC1 (stereo not drawn) [JR14a] here?
A: 7.6 ± 0.9

Q: What about the EC50 ([1]; compound alone, CHO hCB2R, 10 μM FSK, 90 min, read-out: EC50 (in brackets after pEC50) (converted)) of the same molecule?
A: 24 nM

Q: What about the Emax [1] of the same molecule?
A: 29 ± 5%
